# What was measured:
# rTRPV2-YFP = system: T1, rTRPV2-YFP; assay: Selectivity profiling, fluo-4 [Ca2+]i response, TRPV2; format: cell-based, rat
# T1 construct: expressed in transfected cells
# Description: (§1) Human embryonic kidney 293 (HEK293) cells were stably transfected with expression plasmids that encode hTRPC3-YFP, hTRPC6-YFP, hTRPC7-YFP, mTRPC4ß-YFP, rTRPV1-CFP, rTRPV2-YFP, rTRPV3-YFP, mTRPV4-YFP, or hTRPM2 as previously described. Cell lines were cultured in Earle’s minimum essential medium (MEM; Sigma, Munich, Germany), supplemented with 10% fetal calf serum (Gibco Thermo Fisher Scientific, Darmstadt, Germany), 2 mM L-glutamine, and required concentrations of geneticin in a range of 0.4–1 mg/mL. A HEK293mTRPC5-YFP cell line was maintained and induced as described before. […] For electrophysiological and single cell [Ca^2+]i imaging experiments, PC12 cells were plated onto 25 mm poly-L-lysine-coated glass coverslips and measured 24–48 h after seeding. […]
# (§2) The primary compound screen and the generation of concentration response curves in HEK293 cells or in PC12 cells were performed by using a custom-made fluorescence plate imager built into a robotic liquid handling station equipped with a 96-tip multichannel head (Freedom Evo 150, Tecan, Männedorf, Switzerland) as described previously. […] Plates were mounted on the imager, and fluorescence signals were recorded with a cooled Zyla 5.5 camera (Andor, Belfast, UK) through a 515 nm long pass filter. […] When inhibitory potencies were evaluated, a second pipetting step with the respective reference agonist was performed. […]
# TRPM8 = system: T2, TRPM8; assay: Selectivity profiling, fluo-4 [Ca2+]i response, TRPM8; format: cell-based; settings: 100 µM
# T2 construct: expressed in transfected cells
# Description: The primary compound screen and the generation of concentration response curves in HEK293 cells or in PC12 cells were performed by using a custom-made fluorescence plate imager built into a robotic liquid handling station equipped with a 96-tip multichannel head (Freedom Evo 150, Tecan, Männedorf, Switzerland) as described previously. To this end, trypsinized cell suspensions were loaded with 4 µM fluo-4/AM (Invitrogen, Thermo Fisher Scientific, Waltham, MA, U.S.A.) in cell culture medium for 30 min at 37 °C. After brief centrifugation, cells were resuspended in HBS and dispensed into black pigmented, clear-bottom 384-well plates (Greiner µClear, Frickenhausen, Germany). Plates were mounted on the imager, and fluorescence signals were recorded with a cooled Zyla 5.5 camera (Andor, Belfast, UK) through a 515 nm long pass filter. The image acquisition was controlled by the µManager software (http://micro-manager.org), and excitation with a LED array (470 nm) was synchronized by the camera trigger output. […] When inhibitory potencies were evaluated, a second pipetting step with the respective reference agonist was performed. Fluorescence intensities were calculated from image stacks for each well with ImageJ (National Institutes of Health, Bethesda, MD, U.S.A.), corrected for background signals, and normalized to the initial intensities (F/F0). […]
# mTRPC5-YFP = system: T3, mTRPC5-YFP; assay: Selectivity profiling, fluo-4 [Ca2+]i response, TRPC5; format: cell-based, mouse; settings: 100 µM
# T3 construct: expressed in transfected cells
# Description: as §1, §2
# TRPC7 = system: T4, TRPC7; assay: Microfluorometric single-cell [Ca2+]i analysis, fura-2-loaded HEK cells stably expressing TRPC7; format: cell-based, human; settings: 50 µM
# T4 construct: expressed in transfected cells
# Description: The microfluorometric single-cell [Ca^2+]i analysis was performed on an inverted epifluorescence microscope (Carl Zeiss, Jena, Germany) and calibrated as described. Cells were grown on 25 mm coverslips and loaded with 4 µM fura-2/AM (AAT Bioquest, Sunnyvale, CA, U.S.A.) in HBS containing 0.2% BSA for 30 min at 37 °C. […] Experiments were performed either in standard bath solution, containing 1 mM Ca^2+ (black lines and bars), or in a nominally Ca^2+-free HBS buffer, supplemented with 200 µM EGTA (grey lines and bars). Time courses of averaged responses (left), and statistical analysis of 6–11 independent imaging experiments with means and S.D. (right) are shown. Significant differences (p < 0.05, Student´s t-test with paired data: #, with unpaired data: *) are marked for the indicated comparisons; n.s.: difference is statistically not significant.
smiles,measurement,setting,value
C[C@@H]1CC[C@H]2[C@@H](C)C(=O)O[C@@H]3O[C@@]4(C)CC[C@@H]1[C@]32OO4 [artemisinin],"[Ca2+]i response, TRPV2",rTRPV2-YFP; 100 µM,none of the cell lines responded
same,response of TRPV2-expressing cells to 2-APB after artemisinin,"rTRPV2-YFP; 100 µM artemisinin, 2-APB final concentration 300 µM",slightly increased response
same,"[Ca2+]i response, TRPM8",TRPM8,none of the cell lines responded
same,"[Ca2+]i response, TRPC5",mTRPC5-YFP,none of the cell lines responded
same,[Ca2+]i signal in TRPC7-expressing cells in Ca2+-free bath,TRPC7; nominally Ca2+-free HBS with 200 µM EGTA,abolished
same,[Ca2+]i response in TRPC7-overexpressing cells,TRPC7; standard bath 1 mM Ca2+,only a weak [Ca^2+]i signal

# Source: publication PMC7016953 (Cells, 2020)
